According to patent US20150337056A1, “Method for Immediately Terminating Radical Polymerizations, Inhibitor Solution, and Use Thereof” (Allessa GmbH, priority 2013, published 2015):

Tests used:
[1] = solutions in N-alkylpyrrolidones (N-methylpyrrolidone, N-ethylpyrrolidone); cited from earlier work
[2] = Solubility of phenothiazine in conventional organic solvents; assay type: physicochemical
Source text: Only in the N-methylpyrrolidone already mentioned and in the chemically and toxicologically related dimethylformamide could concentrated solutions of 30 percent by weight or more be prepared.
Tetrahydrofuran and acetone could also be identified as good solvents. Unfortunately these solvents have low boiling points and flashpoints which renders transport, storage and handling of the solutions more difficult.

[3] = Solubility and low-temperature stability of inhibitors in (poly)alkylene glycols

| SMILES | low temperature down to which solutions are stable [1] | concentrated solutions that could be prepared ([2]; in N-methylpyrrolidone and in dimethylformamide) | solubility ([2]; in methanol, ethanol, isopropanol, toluene, cyclohexane or n-hexane) | solvent quality for phenothiazine ([2]; tetrahydrofuran and acetone) | temperature dependence of solubility ([3]; in (poly)alkylene glycols, between −20° C. and +20° C., FIG. 1) | solubility in poly(alkylene) glycol(s) ([3]; in poly(alkylene) glycol(s)) | temperature down to which stable solutions are formed ([3]; in poly(alkylene) glycol(s)) |
| --- | --- | --- | --- | --- | --- | --- | --- |
| COc1ccc(O)cc1 [MEHQ, hydroquinone monomethyl ether] | −11 °C |  |  |  |  |  |  |
| c1ccc2c(c1)Nc1ccccc1S2 [phenothiazine] | −11 °C | ≥ 30 percent by weight | 2-3 percent by weight | good solvents | virtually independent of the temperature | readily soluble | −25 °C |
